Source: patent US12403121B2, “Anticancer rocaglamide derivatives” (priority 2018, dated 2025)

Experiments:
osteosarcoma PDX = assay: Osteosarcoma PDX model (NCH-OS-7); assay type: in vivo, NSG mouse; conditions: 3 mg/kg IP every other day
Excerpt: To generate PDX models, the Nationwide Children's Hospital Institutional Review Board approved the Human Subjects Protocol for the acquisition of surgically-removed tumor specimens from patients and informed patient consents were obtained. Shortly after resection, fresh tumor tissues with their histological types confirmed by a specialized pathologist were placed in Dulbecco's-modified Eagle (DME) medium (Invitrogen) and brought to the research laboratory. A piece of tumor fragment was implanted subcutaneously on the dorsal right flank area in an eight-to-ten week-old immunodeficient mouse under anesthesia. Tumors were allowed to grow until established, at which time the established PDX tumors were repeatedly passed from one animal to the next or cryopreserved. For Roc treatment, actively-growing PDXs for a Ewing sarcoma (NCH-EWS-2), an osteosarcoma (NCH—OS-7), and an alveolar rhabdomyosarcoma (NCH-ARMS-2) were excised and cut into 5-mm pieces. Each tumor piece was re-implanted into an NSG mouse and tumor growth was monitored. Once noted, the tumor sizes in the axial plane at its greatest dimension (L) and the orthogonal short dimension (S) were measured twice weekly using a Fowler Ultra-Cal Electronic Caliper. Approximated tumor volumes were calculated using the formula V=(L×S^2)/2. […]

STS26T cells = assay: Western blots of treated MPNST cells; assay type: cell-based, human; conditions: 1 or 2 IC50
Experimental: FIGS. 2A and 2B provide images showing that DDR and Roc increase caspase and PARP cleavage and elevated the levels of γH2AX while decreasing the expression of AKT and ERKs in MPNST cells. (A) Protein lysates prepared from STS26T cells treated for 3 days with 1 or 2 IC50 of DDR or Roc were analyzed by Western blots for the expression of various apoptosis-related proteins and mitogenic kinases AKT and ERK1/2. GAPDH served as a loading control. (B) Western blot analysis was performed on lysates from STS26T cells treated for 1 and 2 days with 1 or 2 IC50 of DDR for the expression of the DNA-damage response biomarker phosphorylated H2A.X (γH2A.X). As a positive control, lysates from HMS-97 human malignant schwannoma cells irradiated with 4 Grays (Gy) of X-ray were used.
Subconfluent cells were treated with the indicated doses of Roc or DDR for 24-72 hours and then harvested in cell lysis buffer (Cell Signaling Technology) containing 1 mM phenylmethylsufonylfluoride and protease inhibitor cocktail (Sigma-Aldrich). The protein content in cleared lysates was quantitated using the microBCA assay (ThermoFisher). Equal amounts of protein were run in sodium dodecyl sulfate-polyacrylamide gels and electrotransferred onto Immobilon-FL PVDF membranes (Millipore). The antibodies used were directed against: MDR1/ABCB1 (#13978), insulin-like growth factor-1 receptor β subunit (IGF-1Rβ; #9750), AKT (#9272), ERK1/2 (#4695), glyceraldehyde-3-phosphate dehydrogenase (GAPDH; #5174), caspase-3 (#9662), caspase-7 (#9492), cleaved caspase-7 (#9491), poly(ADP-ribose) polymerase (PARP; #9532), cleaved PARP (#5625), and phospho-histone H2A.X (pH2A.X[Ser′^39]; #9718; all from Cell Signaling Technology), NKX2.2 (sc-514161), LSD1 (sc-136174), and survivin (sc-17779; Santa Cruz Biotechnology), and FLI1 (ab15289) and cleaved caspase-3 (CC3; ab32042; Abeam). Protein bands were detected using IRDye® infrared fluorescent dye-labeled secondary antibodies and scanning on an Odyssey CLx imaging system (LI-COR Biosciences) using the appropriate fluorescent channel at a resolution of 84 μm.
To confirm induction of apoptosis in rocaglamide-treated MPNST cells, the inventors analyzed protein expression of several markers important for this process. […] A concomitant decrease in the amounts of intact caspases 3 and 7 and PARP was observed, consistent with the enhanced cleavage of these apoptotic markers and possibly due to direct effects of these rocaglamides on protein translation. Likewise, the levels of the pro-survival kinases AKT and ERK1/2 were diminished in rocaglamide-treated MPNST cells.

[1] = system: panel of MPNST, schwannoma, and meningioma cell lines; assay: Side-by-side growth inhibition comparison with silvestrol in a cell line panel; assay type: cell-based; conditions: panel of MPNST, schwannoma, meningioma cell lines
Experimental: Actively-growing cells were seeded in 96-well plates (Sarstedt) at 2,000 cells/well for Ben-Men-1 and RD cells, 30,000 cells/well for 697 and 697-R cells, and 4,000 cells/well for all other cell lines. The following day, cells were treated with various concentrations of each compound or and 0.05% of DMSO as the control for six days for MG-63 cells or three days for all remaining cell lines. Cell proliferation was assessed using resazurin assays and the IC50 value calculated. Cell cycle analysis was performed accordingly. Burns et al., Cancer Res., 73:792-803 (2013).
To search for compounds with better drug-like properties, the inventors conducted a side-by-side comparison of ten rocaglates lacking the dioxanyl ring with silvestrol for growth-inhibitory activity in a panel of MPNST, schwannoma, and meningioma cell lines, which they had previously shown to be sensitive to the antiproliferative action of silvestrol. […] The average IC50 value of each rocaglate was determined by 3-day resazurin proliferation assays. […] Further structure and activity comparison discerned some positions on the cyclopenta[b]benzofuran scaffold that affected the antiproliferative activity of rocaglates.

SMILES: COc1ccc([C@@]23Oc4cc(OC)cc(OC)c4[C@]2(O)[C@H](O)[C@H](C(=O)N(C)C)[C@H]3c2ccccc2)cc1 [Roc, rocaglamide]
- reduction of average tumor size compared to vehicle (osteosarcoma PDX): ~80%
- levels of γH2AX (STS26T cells; STS26T MPNST cells): elevated
- cleavage of caspases 3 and 7 and PARP (STS26T cells; STS26T cells, 3 days): increased cleavage
- expression of AKT and ERKs (STS26T cells; STS26T cells, 3 days): decreasing
- IC50 values relative to silvestrol [1]: slightly higher than silvestrol
